Data reported in ChEMBL document CHEMBL1135740, “Design, synthesis, and activity of a novel series of factor Xa inhibitors: optimization of arylamidine groups” (J Med Chem, 2002).

Experiments:
Serine protease 1 = target: T1, Serine protease 1 (Bos taurus, UniProt P00760); experiment: Inhibitory constant against bovine trypsin for general specificity against serine proteases
T1 sequence (P00760 whole entry): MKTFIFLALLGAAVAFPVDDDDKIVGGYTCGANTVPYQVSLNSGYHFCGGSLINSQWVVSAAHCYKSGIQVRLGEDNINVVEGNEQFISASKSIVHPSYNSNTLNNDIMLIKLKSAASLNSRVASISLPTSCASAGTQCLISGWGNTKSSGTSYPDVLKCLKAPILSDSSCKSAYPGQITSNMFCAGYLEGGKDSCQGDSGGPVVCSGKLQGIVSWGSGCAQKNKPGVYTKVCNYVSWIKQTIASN

Coagulation factor X = Coagulation factor X (Homo sapiens, UniProt P00742); experiment: Inhibitory constant against human coagulation factor Xa (fXa)
Sequence of Coagulation factor X (P00742 41-179 limits assumed): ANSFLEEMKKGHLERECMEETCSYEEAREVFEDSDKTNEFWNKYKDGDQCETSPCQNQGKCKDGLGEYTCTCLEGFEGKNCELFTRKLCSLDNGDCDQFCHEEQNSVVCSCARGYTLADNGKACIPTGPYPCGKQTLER
Sequence of Coagulation factor X (P00742 235-488 limits assumed): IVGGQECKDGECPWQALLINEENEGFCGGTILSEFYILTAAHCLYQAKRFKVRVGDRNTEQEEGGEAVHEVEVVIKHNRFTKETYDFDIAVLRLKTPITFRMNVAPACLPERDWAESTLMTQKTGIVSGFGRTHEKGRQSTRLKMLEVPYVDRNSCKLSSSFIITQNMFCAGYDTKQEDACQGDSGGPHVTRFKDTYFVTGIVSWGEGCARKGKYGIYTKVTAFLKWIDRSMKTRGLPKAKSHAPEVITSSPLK

Prothrombin = Prothrombin (Homo sapiens, UniProt P00734); experiment: Inhibitory constant against human coagulation factor II (thrombin) for selectivity within coagulation cascade

| Compound | Ki (Serine protease 1) [nM] | Ki (Coagulation factor X) [nM] | Ki (Prothrombin) [nM] |
| --- | --- | --- | --- |
| Cn1ccnc1-c1cccc(Oc2cc(C(=O)O)cc(Oc3cc(C(=N)N)ccc3O)n2)c1 | 650 | – | – |
| COc1cc(C(=N)N)cc(Oc2nc(Oc3cccc(C(=O)N(C)C)c3)c(F)c(C)c2F)c1OC | > 5000 | 180 | > 5000 |
| COc1cccc(Oc2nc(Oc3cccc(C(=N)N)c3)c(F)c(C)c2F)c1 | – | 1350 | 1800 |
| Cc1c(F)c(Oc2cccc(C(=N)N)c2)nc(Oc2cccc(C(=O)Nc3ccccc3)c2)c1F | – | > 5000 | > 5000 |
| COc1cc(C(=O)N(C)C)cc(Oc2nc(Oc3cccc(C(=N)N)c3)c(F)c(C)c2F)c1OC | – | > 5000 | – |
| COc1ccc(C(=N)N)cc1Oc1nc(Oc2cccc(C(=O)N(C)C)c2)c(F)c(C)c1F | – | 720 | – |
| COc1cc(Oc2nc(Oc3cccc(C(=O)N(C)C)c3)c(F)c(C)c2F)c(O)c(C(=N)N)c1 | > 5000 | > 5000 | > 5000 |
| Cc1c(F)c(Oc2cccc(C(=N)N)c2)nc(Oc2cccc(C(=O)N(C)Cc3ccccc3)c2)c1F | – | 2400 | – |
| CN(C)C(=O)c1cccc(Oc2cc(C(=O)O)cc(Oc3cccc(C(=N)N)c3)n2)c1 | 730 | 263 | > 5000 |
| COc1cc(Oc2nc(Oc3cccc(C(=N)N)c3)c(F)c(C)c2F)cc(C(=O)N(C)C)c1 | 750 | 140 | > 5000 |
| CCN(CC)c1cccc(Oc2nc(Oc3cccc(C(=N)N)c3)c(F)c(C)c2F)c1 | 2100 | 400 | 730 |
| Cc1c(F)c(Oc2cccc(C(=N)N)c2)nc(Oc2cccc(C(O)C(N)=O)c2)c1F (stereo not given) | – | 370 | – |
| COc1ccc(C(=N)N)cc1Oc1nc(Oc2cccc(N(C)C)c2)c(F)c(C)c1F | – | 1400 | – |
| Cc1c(F)c(Oc2cccc(C(=N)N)c2)nc(Oc2cccc(C(=O)N(C)C)c2O)c1F | – | 4500 | – |
| Cc1c(F)c(Oc2cccc(C(=O)N(C)C)c2)nc(Oc2cc(C(=N)N)ccc2O)c1F | – | 1.8 | – |
| Cc1c(F)c(Oc2cccc(C(=N)N)c2)nc(Oc2cc(O)cc(C(=O)N(C)C)c2)c1F | 1900 | > 5000 | 740 |
| N=C(N)c1ccc(O)c(Oc2cc(C(=O)O)cc(Oc3cccc(NCCN)c3)n2)c1 | 350 | 78 | 3400 |
| Cc1c(F)c(Oc2cccc(CCC(N)=O)c2)nc(Oc2cccc(C(=N)N)c2)c1F | > 5000 | 700 | – |
| Cc1c(F)c(Oc2cccc(C(=O)N(C)C)c2)nc(Oc2cc(C(=N)N)ccc2NS(=O)(=O)C(F)(F)F)c1F | – | > 5000 | – |
| Cc1c(F)c(Oc2cccc(C(=N)N)c2)nc(Oc2cccc(N3CCOCC3)c2)c1F | 2000 | 650 | > 5000 |
| CCN(CC)C(=O)c1cccc(Oc2nc(Oc3cccc(C(=N)N)c3)c(F)c(C)c2F)c1 | – | 690 | – |
| Cc1cn(C)c(-c2cccc(Oc3cc(C(=O)O)cc(Oc4cc(C(=N)N)ccc4O)n3)c2)n1 | 470 | 8.4 | 880 |
| Cc1c(F)c(Oc2cccc(C(=N)N)c2)nc(Oc2cccc(C(=O)N3CCN(C)CC3)c2)c1F | – | > 5000 | – |
| COc1ccc(C(=N)N)c(OC)c1Oc1nc(Oc2cccc(N(C)C)c2)c(F)c(C)c1F | – | > 5000 | – |
| CNC(=O)c1cccc(Oc2nc(Oc3cccc(C(=N)N)c3)c(F)c(C)c2F)c1 | – | 1200 | – |
| COc1cc(Oc2nc(Oc3cccc(C(=O)N(C)C)c3)c(F)c(C)c2F)cc(C(=N)N)c1 | – | 2700 | – |
| Cc1c(F)c(Oc2cccc(C(=N)N)c2)nc(Oc2cccc(C(=O)N3CCOCC3)c2)c1F | > 5000 | 1400 | > 5000 |
| Cc1ccc(C(=N)N)cc1Oc1nc(Oc2cccc(N(C)C)c2)c(F)c(C)c1F | – | 1200 | – |

| Compound | Ki (Serine protease 1) [nM] | Ki (Coagulation factor X) [nM] | Ki (Prothrombin) [nM] |
| --- | --- | --- | --- |
| CCOC(=O)Cc1cccc(Oc2nc(Oc3cccc(C(=N)N)c3)c(F)c(C)c2F)c1 | > 5000 | 810 | > 5000 |
| Cc1c(F)c(Oc2cccc(C(=N)N)c2)nc(Oc2cccc(C(=O)C(C)C)c2)c1F | 3800 | 2100 | > 5000 |
| Cc1c(F)c(Oc2cccc(CC(=O)O)c2)nc(Oc2cccc(C(=N)N)c2)c1F | > 5000 | > 5000 | > 5000 |
| COc1ccc(N(C)C)cc1Oc1nc(Oc2cccc(C(=N)N)c2)c(F)c(C)c1F | > 5000 | > 5000 | 2200 |
| Cc1c(F)c(Oc2cccc(CC(N)=O)c2)nc(Oc2cccc(C(=N)N)c2)c1F | > 5000 | 280 | > 5000 |
| CC(=O)c1cccc(Oc2nc(Oc3cccc(C(=N)N)c3)c(F)c(C)c2F)c1 | – | 1400 | > 5000 |
| CC(=O)Nc1cccc(Oc2nc(Oc3cccc(C(=N)N)c3)c(F)c(C)c2F)c1 | – | 5800 | – |
| Cc1c(F)c(Oc2cccc(CC(=O)N(C)C)c2)nc(Oc2cccc(C(=N)N)c2)c1F | 4200 | 460 | > 5000 |
| Cc1ccc(C(=O)N(C)C)cc1Oc1nc(Oc2cccc(C(=N)N)c2)c(F)c(C)c1F | – | > 5000 | – |
| Cc1c(F)c(Oc2cccc(C(=N)N)c2)nc(Oc2cccc([S+]([O-])N(C)C)c2)c1F (stereo not given) | 2400 | 720 | > 5000 |
| Cc1c(F)c(Oc2cccc(Nc3ccccc3)c2)nc(Oc2cccc(C(=N)N)c2)c1F | > 5000 | 1800 | 3800 |
| Cc1c(F)c(Oc2cccc(N(C)C)c2)nc(Oc2cc(C(=N)N)ccc2O)c1F | 1000 | 3 | 190 |
| Cc1c(F)c(Oc2cccc(C(=N)N)c2)nc(Oc2cccc(C(F)(F)F)c2)c1F | – | 1600 | > 5000 |
| CCNc1cccc(Oc2nc(Oc3cccc(C(=N)N)c3)c(F)c(C)c2F)c1 | 2700 | 530 | > 5000 |
| COc1ccc(Oc2nc(Oc3cccc(C(=N)N)c3)c(F)c(C)c2F)cc1C(=O)N(C)C | 450 | 1400 | 3000 |
| Cc1c(F)c(Oc2cccc(CO)c2)nc(Oc2cccc(C(=N)N)c2)c1F | – | 1300 | – |
| Cc1c(F)c(Oc2cccc(O)c2)nc(Oc2cccc(C(=N)N)c2)c1F | – | 5000 | – |
| Cc1c(F)c(Oc2cccc(C(=N)N)c2)nc(Oc2cc(C(=O)N(C)C)ccc2O)c1F | 3700 | > 5000 | > 5000 |
| Cc1c(F)c(Oc2cccc(CN)c2)nc(Oc2cccc(C(=N)N)c2)c1F | 2900 | 1400 | > 5000 |
| CCOC(=O)c1ccc(N(C)C)cc1Oc1nc(Oc2cccc(C(=N)N)c2)c(F)c(C)c1F | > 5000 | > 5000 | > 5000 |
| Cc1c(F)c(Oc2cccc(F)c2)nc(Oc2cccc(C(=N)N)c2)c1F | – | 3200 | – |
| Cc1c(F)c(Oc2cccc(C(=N)N)c2)nc(Oc2ccc(O)c(C(=O)N(C)C)c2)c1F | – | 2000 | – |
| COc1c(Oc2nc(Oc3cccc(C(=N)N)c3)c(F)c(C)c2F)cccc1C(=O)N(C)C | – | 2400 | – |
| Cc1c(F)c(Oc2cccc(Cl)c2)nc(Oc2cccc(C(=N)N)c2)c1F | – | 1700 | > 5000 |
| Cc1c(F)c(Oc2cccc(N(C)C)c2)nc(Oc2cc(C(=N)N)ccc2N)c1F | 400 | 64 | 300 |
| CN(C)c1cccc(Oc2cc(C(=O)O)cc(Oc3cc(C(=N)N)ccc3O)n2)c1 | 750 | 12 | 120 |
| Cc1c(F)c(Oc2cccc(NC(N)=O)c2)nc(Oc2cccc(C(=N)N)c2)c1F | > 5000 | 4000 | > 5000 |
